What all share (assay): Microtitre 2-fold serial dilution MIC assay
What all share (type): cell-based

Assay [1] relates to Aspergillus niger. The note with it: A. niger; 30° C., 4 days, turbidity.
For assay [2], the system named is Saccharomyces cerevisiae. The settings on record: S. cerevisiae; 30° C., 4 days, turbidity. As for the experimental part:
Anti-fungal activity for the present compounds was determined using microtitre format. Microtitre plates (96 wells: rows A-H, columns 1-12) were filled by the following protocol to give 2-fold serial dilutions of each of Bk-1229 and Bk-1097. Samples of Bk-1229 and Bk-1097 were dissolved in 1/10-strength BHIB containing 0.1% (w/v) dimethylsulfoxide (DMSO). Aliquots (50 μL) of 1/10-strength BHIB containing 0.1 (w/v) % DMSO (pH 7.4) were added to all wells except those in column 1. The wells in column 1 received 100 μL of the solutions of Bk-1229 or Bk-1097 and 50 μL was removed and mixed with the medium in the second well. This process was repeated through well 11, at which point an aliquot (50 μL) was removed and discarded. Well 12 was the blank (positive growth) control, BHIB+DMSO only. The test microorganisms employed in this example were Saccharomyces cerevisiae, Candida albicans, and Aspergillus niger, which were obtained from the Virginia Tech Microbiology Culture Collection. Cells of S. cerevisiae and C. albicans were grown in sterile 1/10-strength Brain Heart Infusion Broth (BHIB) and incubated at 30° C. for 18 h. Cells were counted as colony forming units on 1/10-strength BHIB agar. Spore suspensions of A. niger were prepared from lawns of sporulating colonies on 1/10-strength BHIB agar. The number of spores was determined by counting spores microscopically in a Petroff-Hauser counting chamber. The resulting culture or spore suspensions were diluted to 10^5 cells or spores/mL. Following the preparation of the dilution series, 50 μL of microbial inocula (10^5/mL) were added to each well in a row. The concentration of Bk-1229 and Bk-1097 ranged from 50 to 0.05 μg/mL. After the plates were incubated at 30° C. for 4 days, measurement of minimal inhibitory concentration (MIC) results were read by comparing the turbidity (due to microbial growth) of each test well to the positive control wells. The measured MICs for each of burkholdines are summarized as follow: […]

Assay [3] deals with Candida albicans. The note with it: C. albicans; 30° C., 4 days, turbidity.

Among the data in patent publication US9139616B2, “Isolation, identification, and uses of antifungal compounds” (priority 2010, dated 2015) are MIC values, retold here.

Molecules are shown by their SMILES. Converted amounts (≈) assume the structure as drawn. Numbered stars: 1 amine (or outer) side, 2 acyl side, 3 side chain; on linkers, the order of the positions; unused ones are H or OH. Bridge positions count the residues as written; N and C are the ends. Square brackets hold non-standard residues; d marks the D form. Peptide text beside a SMILES is read from it. ξ: configuration not given here. X1 = CCCCCCCCCCCC(O[C@H]1OC[C@H](O)[C@@H](O)[C@@H]1O)C(O)C(O)CC(CC(=O)[*:1])N[*:2]; X2 = CCCCCCCCCCCC(O)C(O)C(O)CC(CC(=O)[*:2])N[*:1]; Asn(3S-OH) = NC(=O)[C@@H](O)[C@H](N)C(=O)O; ξTyr(βOH) = NC(C(=O)O)C(O)c1ccc(O)cc1

The term MIC denotes the least concentration at which growth counts as inhibited. A higher MIC goes with a need for much substance. `C[C@@H]1[C@H](O)[C@@H](C)/C=C/C=C/C=C/C=C/C=C/C=C/C=C/[C@H](O[C@@H]2O[C@H](C)[C@@H](O)[C@H](N)[C@@H]2O)C[C@@H]2O[C@](O)(C[C@@H](O)C[C@@H](O)[C@H](O)CC[C@@H](O)C[C@@H](O)CC(=O)O[C@H]1C)C[C@H](O)[C@H]2C(=O)O` [Amphetericin B, reference compound]: the MIC in assay [1], in assay [2] and in assay [3] was 25 µg/mL (≈ 27.1 µM) throughout.

Take `CCCCCCCCCCCC(O)C(O)C(O)CC1CC(=O)N[C@H](CO)C(=O)NC(C(O)c2ccc(O)cc2)C(=O)N[C@H](CC(N)=O)C(=O)NCC(=O)N[C@@H](CC(N)=O)C(=O)N[C@@H](CO)C(=O)N[C@@H]([C@H](O)C(N)=O)C(=O)N1` (stereo partly drawn) [Bk-1097 (2), burkholdine 1097] (cyclo(GNS[Asn(3S-OH)][X2][dS][ξTyr(βOH)][dN])): the values for the MIC in assay [1], in assay [2] and in assay [3] were 1.6 µg/mL (≈ 1.46 µM), 1.6 µg/mL (≈ 1.46 µM) and 12.5 µg/mL (≈ 11.4 µM), respectively.

As for `CCCCCCCCCCCC(O[C@H]1OC[C@H](O)[C@@H](O)[C@@H]1O)C(O)C(O)CC1CC(=O)N[C@H](CO)C(=O)NC(C(O)c2ccc(O)cc2)C(=O)N[C@H](CC(N)=O)C(=O)NCC(=O)N[C@@H](CC(N)=O)C(=O)N[C@@H](CO)C(=O)N[C@@H]([C@H](O)C(N)=O)C(=O)N1` (stereo partly drawn) [Bk-1229 (1), burkholdine 1229] ([dS][ξTyr(βOH)][dN]GNS[Asn(3S-OH)]; linker N-C via X1), the MIC in assay [1] is 12.5 µg/mL (≈ 10.2 µM); in assay [2] it was 0.4 µg/mL (≈ 0.325 µM); in assay [3], 12.5 µg/mL (≈ 10.2 µM).
